Laboratory results reported in BindingDB's records for doi:10.1016/j.bmc.2008.09.053 (Chiba University, 2008).

Target: T1, Zinc finger protein GLI1 (Homo sapiens, UniProt P08151)
T1 sequence (P08151 whole entry): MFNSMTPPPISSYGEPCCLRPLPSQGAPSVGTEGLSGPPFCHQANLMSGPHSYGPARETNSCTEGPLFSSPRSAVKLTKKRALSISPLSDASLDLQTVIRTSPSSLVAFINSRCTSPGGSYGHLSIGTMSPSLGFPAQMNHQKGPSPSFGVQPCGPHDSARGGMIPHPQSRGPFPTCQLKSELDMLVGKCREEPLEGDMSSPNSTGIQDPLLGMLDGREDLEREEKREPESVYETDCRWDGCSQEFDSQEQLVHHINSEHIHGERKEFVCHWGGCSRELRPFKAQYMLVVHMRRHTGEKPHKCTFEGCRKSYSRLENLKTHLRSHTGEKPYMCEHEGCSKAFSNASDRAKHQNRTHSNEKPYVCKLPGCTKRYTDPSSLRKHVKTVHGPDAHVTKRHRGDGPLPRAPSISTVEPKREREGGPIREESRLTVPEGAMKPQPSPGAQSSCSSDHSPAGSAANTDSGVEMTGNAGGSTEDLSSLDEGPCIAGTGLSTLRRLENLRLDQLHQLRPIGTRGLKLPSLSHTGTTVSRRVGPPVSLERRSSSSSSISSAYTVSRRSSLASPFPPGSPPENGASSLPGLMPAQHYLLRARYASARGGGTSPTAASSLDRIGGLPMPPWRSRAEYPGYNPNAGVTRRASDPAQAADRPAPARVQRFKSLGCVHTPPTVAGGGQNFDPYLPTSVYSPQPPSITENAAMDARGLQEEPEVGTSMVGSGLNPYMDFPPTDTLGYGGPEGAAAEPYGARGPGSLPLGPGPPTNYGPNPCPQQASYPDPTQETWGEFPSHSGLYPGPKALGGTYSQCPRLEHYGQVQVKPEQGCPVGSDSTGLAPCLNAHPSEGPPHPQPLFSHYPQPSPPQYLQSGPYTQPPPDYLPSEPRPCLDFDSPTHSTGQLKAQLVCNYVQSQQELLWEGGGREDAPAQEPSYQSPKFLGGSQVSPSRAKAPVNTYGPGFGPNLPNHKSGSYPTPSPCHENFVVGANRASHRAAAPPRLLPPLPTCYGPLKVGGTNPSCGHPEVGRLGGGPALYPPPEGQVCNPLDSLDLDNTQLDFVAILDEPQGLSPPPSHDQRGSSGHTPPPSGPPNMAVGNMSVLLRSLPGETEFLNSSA
Assay: Inhibition of GLI1-mediated transcriptional activity in human HaCaT cells by luciferase based reporter gene assay

Compound | IC50
C=C(C)[C@@H]1CC[C@]2(C(=O)O)CC[C@]3(C)[C@H](CC[C@@H]4[C@@]5(C)[C@@H](C(=O)O)[C@H](O)C(C)(C)[C@@H]5CC[C@]43C)[C@@H]12 | > 200 µM
C=C(C)[C@@H]1CC[C@]2(C(=O)O)CC[C@]3(C)[C@H](CC[C@@H]4[C@@]5(C)[C@H](CO)[C@@H](O)C(C)(C)[C@@H]5CC[C@]43C)[C@@H]12 [ceanothanolic acid] | 133 µM
